Laboratory results published in US20090105270A1, “Kinase inhibition and anticancer therapy” (priority 2007, published 2009).

Columns and labels:
ROCK-II(h) = ROCK-II(h) (Homo sapiens, UniProt O75116); test: Upstate kinase activity inhibition assay ROCK-II(h); conditions: 40 min, read-out: percentage of enzyme activity that remains
WNK2(h) = target: T1, WNK2(h) (Homo sapiens, UniProt Q9Y3S1); test: Upstate kinase activity inhibition assay WNK2(h); type: biochemical; conditions: 40 min; read-out: percentage of enzyme activity that remains
T1 construct: purchased Upstate (KinaseProfiler service)

PRAK(h) = PRAK(h) (Homo sapiens, UniProt Q8IW41); test: Upstate kinase activity inhibition assay PRAK(h); conditions: 40 min, read-out: percentage of enzyme activity that remains
Ron(h) = target: T2, Ron(h) (Homo sapiens, UniProt Q04912); test: Upstate kinase activity inhibition assay Ron(h); type: biochemical; conditions: 40 min; read-out: percentage of enzyme activity that remains
T2 construct: purchased Upstate (KinaseProfiler service)

BrSK2(h) = target: T3, BrSK2(h) (Homo sapiens, UniProt Q8IWQ3); test: Upstate kinase activity inhibition assay BrSK2(h); type: biochemical; conditions: 40 min; read-out: percentage of enzyme activity that remains
T3 construct: purchased Upstate (KinaseProfiler service)

DDR2(h) = target: T4, DDR2(h) (Homo sapiens, UniProt Q16832); test: Upstate kinase activity inhibition assay DDR2(h); type: biochemical; conditions: 40 min; read-out: percentage of enzyme activity that remains
T4 construct: purchased Upstate (KinaseProfiler service)

SGK2(h) = SGK2(h) (Homo sapiens, UniProt Q9HBY8); test: Upstate kinase activity inhibition assay SGK2(h); conditions: 40 min, read-out: percentage of enzyme activity that remains
SAPK3(h) = target: T5, SAPK3(h) (Homo sapiens, UniProt P53778); test: Upstate kinase activity inhibition assay SAPK3(h); type: biochemical; conditions: 40 min; read-out: percentage of enzyme activity that remains
T5 construct: purchased Upstate (KinaseProfiler service)

ZAP-70(h) = target: T6, ZAP-70(h) (Homo sapiens, UniProt P43403); test: Upstate kinase activity inhibition assay ZAP-70(h); type: biochemical; conditions: 40 min; read-out: percentage of enzyme activity that remains
T6 construct: purchased Upstate (KinaseProfiler service)

CDK6/cyclinD3(h) = target: T7, CDK6/cyclinD3(h) (Homo sapiens, UniProt Q00534); test: Upstate kinase activity inhibition assay CDK6/cyclinD3(h); type: biochemical; conditions: 40 min; read-out: percentage of enzyme activity that remains
T7 construct: purchased Upstate (KinaseProfiler service)

HIPK3(h) = HIPK3(h) (Homo sapiens, UniProt Q9H422); test: Upstate kinase activity inhibition assay HIPK3(h); conditions: 40 min, read-out: percentage of enzyme activity that remains
MELK(h) = MELK(h) (Homo sapiens, UniProt Q14680); test: Upstate kinase activity inhibition assay MELK(h); conditions: 40 min, read-out: percentage of enzyme activity that remains
ARK5(h) = ARK5(h) (Homo sapiens, UniProt O60285); test: Upstate kinase activity inhibition assay ARK5(h)
BrSK1(h) = target: T8, BrSK1(h) (Homo sapiens, UniProt Q8TDC3); test: Upstate kinase activity inhibition assay BrSK1(h); type: biochemical; conditions: 40 min; read-out: percentage of enzyme activity that remains
T8 construct: purchased Upstate (KinaseProfiler service)

IKKα(h) = target: T9, IKKα(h) (Homo sapiens, UniProt O15111); test: Upstate kinase activity inhibition assay IKKα(h); type: biochemical; conditions: 40 min; read-out: percentage of enzyme activity that remains
T9 construct: purchased Upstate (KinaseProfiler service)

HIPK1(h) = HIPK1(h) (Homo sapiens, UniProt Q86Z02); test: Upstate kinase activity inhibition assay HIPK1(h); conditions: 40 min, read-out: percentage of enzyme activity that remains
Rsk1(h) = target: T10, Rsk1(h) (Homo sapiens, UniProt Q15418); test: Upstate kinase activity inhibition assay Rsk1(h); type: biochemical; conditions: 40 min; read-out: percentage of enzyme activity that remains
T10 construct: purchased Upstate (KinaseProfiler service)

eEF-2K(h) = target: T11, eEF-2K(h) (Homo sapiens, UniProt O00418); test: Upstate kinase activity inhibition assay eEF-2K(h); type: biochemical; conditions: 40 min; read-out: percentage of enzyme activity that remains
T11 construct: purchased Upstate (KinaseProfiler service)

EphB2(h) = EphB2(h) (Homo sapiens, UniProt P29323); test: Upstate kinase activity inhibition assay EphB2(h)
NEK11(h) = NEK11(h) (Homo sapiens, UniProt Q8NG66); test: Upstate kinase activity inhibition assay NEK11(h); conditions: 40 min, read-out: percentage of enzyme activity that remains
PKCγ(h) = target: T12, PKCγ(h) (Homo sapiens, UniProt P05129); test: Upstate kinase activity inhibition assay PKCγ(h); type: biochemical; conditions: 40 min; read-out: percentage of enzyme activity that remains
T12 construct: purchased Upstate (KinaseProfiler service)

Pyk2(h) = target: T13, Pyk2(h) (Homo sapiens, UniProt Q14289); test: Upstate kinase activity inhibition assay Pyk2(h); type: biochemical; conditions: 40 min; read-out: percentage of enzyme activity that remains
T13 construct: purchased Upstate (KinaseProfiler service)

FGFR3(h) = FGFR3(h) (Homo sapiens, UniProt P22607); test: Upstate kinase activity inhibition assay FGFR3(h); conditions: 40 min, read-out: percentage of enzyme activity that remains
SAPK2a(h) = SAPK2a(h) (Homo sapiens, UniProt Q16539); test: Upstate kinase activity inhibition assay SAPK2a(h)
CDK7/cyclinH/MAT1(h) = target: T14, CDK7/cyclinH/MAT1(h) (Homo sapiens, UniProt P50613); test: Upstate kinase activity inhibition assay CDK7/cyclinH/MAT1(h); type: biochemical; conditions: 40 min, read-out: percentage of enzyme activity that remains
T14 construct: purchased Upstate (KinaseProfiler service)

p70S6K(h) = target: T15, p70S6K(h) (Homo sapiens, UniProt P23443); test: Upstate kinase activity inhibition assay p70S6K(h); type: biochemical; conditions: 40 min; read-out: percentage of enzyme activity that remains
T15 construct: purchased Upstate (KinaseProfiler service)

Pim-1(h) = Pim-1(h) (Homo sapiens, UniProt P11309); test: Upstate kinase activity inhibition assay Pim-1(h); type: biochemical; conditions: 40 min; read-out: percentage of enzyme activity that remains
Rse(h) = target: T16, Rse(h) (Homo sapiens, UniProt Q06418); test: Upstate kinase activity inhibition assay Rse(h); type: biochemical; conditions: 40 min; read-out: percentage of enzyme activity that remains
T16 construct: purchased Upstate (KinaseProfiler service)

PKBγ(h) = target: T17, PKBγ(h) (Homo sapiens, UniProt Q9Y243); test: Upstate kinase activity inhibition assay PKBγ(h); type: biochemical; conditions: 40 min; read-out: percentage of enzyme activity that remains
T17 construct: purchased Upstate (KinaseProfiler service)

JNK3(h) = target: T18, JNK3(h) (Homo sapiens, UniProt P53779); test: Upstate kinase activity inhibition assay JNK3(h); type: biochemical
T18 construct: purchased Upstate (KinaseProfiler service)

IRAK1(h) = IRAK1(h) (Homo sapiens, UniProt P51617); test: Upstate kinase activity inhibition assay IRAK1(h); conditions: 40 min, read-out: percentage of enzyme activity that remains

T9 sequence (O15111 whole entry): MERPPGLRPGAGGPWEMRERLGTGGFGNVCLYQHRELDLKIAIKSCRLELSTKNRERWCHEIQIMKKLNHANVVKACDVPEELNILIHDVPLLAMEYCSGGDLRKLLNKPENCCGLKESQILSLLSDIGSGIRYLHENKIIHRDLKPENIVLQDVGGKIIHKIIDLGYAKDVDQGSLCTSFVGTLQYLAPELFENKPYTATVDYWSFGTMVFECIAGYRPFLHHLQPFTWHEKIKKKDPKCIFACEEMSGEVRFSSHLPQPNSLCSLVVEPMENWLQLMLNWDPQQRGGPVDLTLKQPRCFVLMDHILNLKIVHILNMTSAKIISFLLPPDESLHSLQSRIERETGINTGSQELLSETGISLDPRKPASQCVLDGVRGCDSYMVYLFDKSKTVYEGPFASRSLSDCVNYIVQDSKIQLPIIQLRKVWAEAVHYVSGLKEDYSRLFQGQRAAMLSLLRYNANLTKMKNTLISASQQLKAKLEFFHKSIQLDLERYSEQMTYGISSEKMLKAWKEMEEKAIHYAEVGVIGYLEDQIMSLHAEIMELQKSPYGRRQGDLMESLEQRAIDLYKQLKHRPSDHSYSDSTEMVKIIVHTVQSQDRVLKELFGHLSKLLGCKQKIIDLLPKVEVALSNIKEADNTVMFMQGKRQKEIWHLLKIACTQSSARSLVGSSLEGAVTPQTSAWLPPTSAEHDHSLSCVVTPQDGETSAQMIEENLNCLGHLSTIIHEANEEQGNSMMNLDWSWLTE
HIPK3(h), sequence (Q9H422 whole entry): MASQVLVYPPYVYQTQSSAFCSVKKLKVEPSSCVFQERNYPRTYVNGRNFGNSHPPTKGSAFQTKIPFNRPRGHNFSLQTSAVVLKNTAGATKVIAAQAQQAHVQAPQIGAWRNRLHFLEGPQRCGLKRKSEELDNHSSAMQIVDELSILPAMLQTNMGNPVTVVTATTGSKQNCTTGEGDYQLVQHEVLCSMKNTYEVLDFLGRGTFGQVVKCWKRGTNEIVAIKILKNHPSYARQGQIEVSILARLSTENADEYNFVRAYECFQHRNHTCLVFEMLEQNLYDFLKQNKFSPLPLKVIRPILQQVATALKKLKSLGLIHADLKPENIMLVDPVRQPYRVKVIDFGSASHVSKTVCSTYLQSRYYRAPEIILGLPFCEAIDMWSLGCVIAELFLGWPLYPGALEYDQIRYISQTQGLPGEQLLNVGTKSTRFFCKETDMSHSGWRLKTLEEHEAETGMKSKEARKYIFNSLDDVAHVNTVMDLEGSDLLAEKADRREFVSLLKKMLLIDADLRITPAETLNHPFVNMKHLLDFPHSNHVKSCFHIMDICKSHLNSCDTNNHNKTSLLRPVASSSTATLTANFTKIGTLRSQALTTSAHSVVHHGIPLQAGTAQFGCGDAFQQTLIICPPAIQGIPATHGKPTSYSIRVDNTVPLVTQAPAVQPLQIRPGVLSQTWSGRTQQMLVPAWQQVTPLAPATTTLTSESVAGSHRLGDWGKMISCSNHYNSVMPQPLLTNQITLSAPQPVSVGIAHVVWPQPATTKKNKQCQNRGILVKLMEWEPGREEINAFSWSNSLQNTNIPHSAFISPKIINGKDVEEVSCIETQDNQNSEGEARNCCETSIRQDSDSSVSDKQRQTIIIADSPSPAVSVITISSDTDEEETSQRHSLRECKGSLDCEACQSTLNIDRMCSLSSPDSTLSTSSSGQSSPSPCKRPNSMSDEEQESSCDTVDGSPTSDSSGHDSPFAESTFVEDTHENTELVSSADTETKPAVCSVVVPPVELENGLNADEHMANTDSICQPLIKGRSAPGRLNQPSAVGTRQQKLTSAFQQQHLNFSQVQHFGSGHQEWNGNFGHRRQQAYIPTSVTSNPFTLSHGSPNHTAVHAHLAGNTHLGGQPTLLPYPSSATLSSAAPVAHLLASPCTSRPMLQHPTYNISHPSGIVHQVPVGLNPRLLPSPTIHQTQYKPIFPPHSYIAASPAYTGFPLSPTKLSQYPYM
MELK(h), sequence (Q14680 whole entry): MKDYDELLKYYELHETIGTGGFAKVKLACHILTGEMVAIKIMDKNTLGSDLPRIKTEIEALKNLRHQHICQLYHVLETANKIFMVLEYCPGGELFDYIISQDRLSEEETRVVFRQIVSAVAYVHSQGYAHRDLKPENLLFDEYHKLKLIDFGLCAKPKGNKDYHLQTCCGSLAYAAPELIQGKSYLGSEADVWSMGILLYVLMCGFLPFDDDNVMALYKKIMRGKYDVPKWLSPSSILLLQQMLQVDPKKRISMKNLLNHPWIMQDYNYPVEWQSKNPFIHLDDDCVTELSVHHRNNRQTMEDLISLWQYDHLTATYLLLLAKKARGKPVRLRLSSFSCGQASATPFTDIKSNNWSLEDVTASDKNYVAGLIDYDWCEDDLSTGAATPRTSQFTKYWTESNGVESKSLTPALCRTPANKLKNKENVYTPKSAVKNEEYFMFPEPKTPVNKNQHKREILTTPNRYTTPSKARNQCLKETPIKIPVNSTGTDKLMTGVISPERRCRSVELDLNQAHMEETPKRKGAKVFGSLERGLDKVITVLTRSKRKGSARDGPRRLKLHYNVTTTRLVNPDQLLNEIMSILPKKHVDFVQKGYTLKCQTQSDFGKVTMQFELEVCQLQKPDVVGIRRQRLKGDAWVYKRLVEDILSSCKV
T16 sequence (Q06418 41-890): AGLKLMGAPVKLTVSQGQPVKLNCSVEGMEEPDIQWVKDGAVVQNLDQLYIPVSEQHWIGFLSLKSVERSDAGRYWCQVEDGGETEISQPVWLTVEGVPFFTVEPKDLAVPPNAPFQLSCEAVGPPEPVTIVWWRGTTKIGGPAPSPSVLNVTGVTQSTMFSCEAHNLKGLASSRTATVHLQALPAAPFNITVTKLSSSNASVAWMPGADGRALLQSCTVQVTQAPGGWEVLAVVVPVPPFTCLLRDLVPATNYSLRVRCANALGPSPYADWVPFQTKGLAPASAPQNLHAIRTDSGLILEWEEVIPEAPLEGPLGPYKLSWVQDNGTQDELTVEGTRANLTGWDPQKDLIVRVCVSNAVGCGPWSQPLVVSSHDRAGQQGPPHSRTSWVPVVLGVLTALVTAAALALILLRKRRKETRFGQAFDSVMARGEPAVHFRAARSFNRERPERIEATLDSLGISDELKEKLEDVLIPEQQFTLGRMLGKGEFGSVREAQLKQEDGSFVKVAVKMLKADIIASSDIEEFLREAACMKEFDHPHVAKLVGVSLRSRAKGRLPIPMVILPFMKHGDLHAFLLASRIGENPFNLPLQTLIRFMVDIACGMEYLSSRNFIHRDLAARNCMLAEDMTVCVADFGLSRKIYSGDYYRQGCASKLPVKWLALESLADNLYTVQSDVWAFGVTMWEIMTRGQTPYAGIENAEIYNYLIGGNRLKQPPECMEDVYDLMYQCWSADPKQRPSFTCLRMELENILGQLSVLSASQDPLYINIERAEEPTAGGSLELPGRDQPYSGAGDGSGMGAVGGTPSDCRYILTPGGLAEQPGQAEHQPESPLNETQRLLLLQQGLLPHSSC
FGFR3(h), sequence (P22607 23-806): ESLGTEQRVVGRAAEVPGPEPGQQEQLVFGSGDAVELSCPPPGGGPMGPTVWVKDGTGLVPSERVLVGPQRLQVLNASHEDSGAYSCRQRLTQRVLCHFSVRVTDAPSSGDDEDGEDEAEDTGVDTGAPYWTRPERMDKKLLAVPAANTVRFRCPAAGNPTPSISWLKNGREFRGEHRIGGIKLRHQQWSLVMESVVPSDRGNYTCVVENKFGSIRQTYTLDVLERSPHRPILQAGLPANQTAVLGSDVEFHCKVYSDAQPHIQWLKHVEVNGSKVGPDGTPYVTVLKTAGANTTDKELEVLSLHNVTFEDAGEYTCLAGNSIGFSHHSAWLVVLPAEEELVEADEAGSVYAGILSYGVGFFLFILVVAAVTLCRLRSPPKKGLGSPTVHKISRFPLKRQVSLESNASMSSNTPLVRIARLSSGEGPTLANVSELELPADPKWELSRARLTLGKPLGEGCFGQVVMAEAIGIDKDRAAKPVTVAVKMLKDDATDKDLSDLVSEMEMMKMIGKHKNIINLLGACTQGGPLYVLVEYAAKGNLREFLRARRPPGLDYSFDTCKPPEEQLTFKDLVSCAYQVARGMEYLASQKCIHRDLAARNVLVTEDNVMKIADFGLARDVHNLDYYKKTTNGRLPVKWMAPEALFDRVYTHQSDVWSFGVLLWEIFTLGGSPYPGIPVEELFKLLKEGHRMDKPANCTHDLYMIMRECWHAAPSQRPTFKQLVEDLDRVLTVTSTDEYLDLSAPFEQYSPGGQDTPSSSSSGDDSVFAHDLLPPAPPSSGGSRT
T5 sequence (P53778 whole entry): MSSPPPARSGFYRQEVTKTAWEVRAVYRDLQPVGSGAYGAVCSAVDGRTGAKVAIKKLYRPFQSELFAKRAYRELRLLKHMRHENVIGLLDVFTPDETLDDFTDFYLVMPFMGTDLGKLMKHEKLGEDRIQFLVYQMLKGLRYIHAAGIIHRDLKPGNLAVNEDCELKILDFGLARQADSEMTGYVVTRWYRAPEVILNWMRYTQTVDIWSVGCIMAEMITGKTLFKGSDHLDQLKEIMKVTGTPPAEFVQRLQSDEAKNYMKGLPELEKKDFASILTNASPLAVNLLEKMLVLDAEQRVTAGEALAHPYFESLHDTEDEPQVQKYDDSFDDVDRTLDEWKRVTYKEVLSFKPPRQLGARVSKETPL
Pim-1(h), sequence (P11309 whole entry): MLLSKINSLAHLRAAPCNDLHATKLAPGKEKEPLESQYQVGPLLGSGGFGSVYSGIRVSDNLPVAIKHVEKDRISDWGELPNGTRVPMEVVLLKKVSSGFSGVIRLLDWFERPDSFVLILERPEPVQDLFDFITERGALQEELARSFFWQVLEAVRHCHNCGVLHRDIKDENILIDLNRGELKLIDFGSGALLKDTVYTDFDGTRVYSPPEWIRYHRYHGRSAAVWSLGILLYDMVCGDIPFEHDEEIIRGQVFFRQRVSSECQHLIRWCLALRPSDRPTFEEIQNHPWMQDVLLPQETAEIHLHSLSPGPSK

Cc1cc(Nc2cc(N3CCN(C)CC3)nc(Sc3ccc(NC(=O)C4CC4)cc3)n2)n[nH]1 [Compound E, Cyclopropane carboxylic acid {4-[4-(4-methyl-piperazin-1-yl)-6-(5-methyl-2H-pyrazol-3-ylamino)-pyrimidin-2-ylsulphanyl]-phenyl}-amide]
remaining activity at 0.2 µM (ROCK-II(h)): 93%
remaining activity at 4 µM (ROCK-II(h)): 106%
remaining activity at 0.2 µM (WNK2(h)): 107%
remaining activity at 4 µM (WNK2(h)): 90%
remaining activity at 0.2 µM (PRAK(h)): 114%
remaining activity at 4 µM (PRAK(h)): 109%
remaining activity at 0.2 µM (Ron(h)): 95%
remaining activity at 4 µM (Ron(h)): 48%
remaining activity at 0.2 µM (BrSK2(h)): 102%
remaining activity at 4 µM (BrSK2(h)): 96%
remaining activity at 0.2 µM (DDR2(h)): 100%
remaining activity at 0.2 µM (SGK2(h)): 102%
remaining activity at 4 µM (SGK2(h)): 102%
remaining activity at 0.2 µM (SAPK3(h)): 132%
remaining activity at 4 µM (SAPK3(h)): 115%
remaining activity at 0.2 µM (ZAP-70(h)): 75%
remaining activity at 4 µM (ZAP-70(h)): 64%
remaining activity at 0.2 µM (CDK6/cyclinD3(h)): 103%
remaining activity at 4 µM (CDK6/cyclinD3(h)): 97%
remaining activity at 0.2 µM (HIPK3(h)): 112%
remaining activity at 4 µM (HIPK3(h)): 95%
remaining activity at 0.2 µM (MELK(h)): 56%
remaining activity at 4 µM (MELK(h)): 13%
percentage of enzyme activity that remains (ARK5(h); 0.2 μM Compound E): 53%
percentage of enzyme activity that remains (ARK5(h); 4 μM Compound E): 11%
remaining activity at 0.2 µM (BrSK1(h)): 115%
remaining activity at 4 µM (BrSK1(h)): 97%
remaining activity at 0.2 µM (IKKα(h)): 103%
remaining activity at 4 µM (IKKα(h)): 99%
remaining activity at 0.2 µM (HIPK1(h)): 100%
remaining activity at 4 µM (HIPK1(h)): 100%
remaining activity at 4 µM (Rsk1(h)): 89%
remaining activity at 0.2 µM (eEF-2K(h)): 91%
remaining activity at 4 µM (eEF-2K(h)): 82%
percentage of enzyme activity that remains (EphB2(h); 0.2 μM Compound E): 121%
percentage of enzyme activity that remains (EphB2(h); 4 μM Compound E): 107%
remaining activity at 0.2 µM (NEK11(h)): 106%
remaining activity at 4 µM (NEK11(h)): 106%
remaining activity at 0.2 µM (PKCγ(h)): 96%
remaining activity at 4 µM (PKCγ(h)): 82%
remaining activity at 0.2 µM (Pyk2(h)): 100%
remaining activity at 4 µM (Pyk2(h)): 59%
remaining activity at 0.2 µM (FGFR3(h)): 87%
remaining activity at 4 µM (FGFR3(h)): 29%
percentage of enzyme activity that remains (SAPK2a(h); 0.2 μM Compound E): 116%
percentage of enzyme activity that remains (SAPK2a(h); 4 μM Compound E): 123%
remaining activity at 0.2 µM (CDK7/cyclinH/MAT1(h)): 113%
remaining activity at 4 µM (CDK7/cyclinH/MAT1(h)): 94%
remaining activity at 4 µM (p70S6K(h)): 92%
remaining activity at 0.2 µM (Pim-1(h)): 102%
remaining activity at 4 µM (Pim-1(h)): 103%
remaining activity at 0.2 µM (Rse(h)): 94%
remaining activity at 4 µM (Rse(h)): 77%
remaining activity at 0.2 µM (PKBγ(h)): 89%
remaining activity at 4 µM (PKBγ(h)): 83%
percentage of enzyme activity that remains (JNK3(h); 0.2 μM Compound E): 94%
percentage of enzyme activity that remains (JNK3(h); 4 μM Compound E): 69%
remaining activity at 0.2 µM (IRAK1(h)): 107%
remaining activity at 4 µM (IRAK1(h)): 108%
